Measured values as given in patent publication US20210270855A1, “PIP2 AS A MARKER FOR HDL FUNCTION AND CARDIOVASCULAR DISEASE RISK” (The Cleveland Clinic Foundation, priority 2016, published 2021).
pKd: −log10 of the molar value.

Experiments:
[1] = system: ABCA1 induced RAW264.7 cells; test: Cholesterol efflux to apoA1 from ABCA1-induced RAW264.7 cells; assay type: cell-based, mouse; conditions: for ABCA1-dependent cholesterol efflux to apoA1: RAW264.7, 1 μM inhibitor, apoA1 chase
Procedure: (§1) Cell growth and ABCA1 induction: All cell culture incubations were performed at 37° C. in humidified 5% CO2 incubator. The growth media was Dulbecco's Modified Eagle Medium (DMEM) with 10% fetal calf serum, 100 μg/mL penicillin, 100 μg/mL […]. ABCA1 was induced in […] cells by 16-24 hr incubation with 0.3 mM 8Br-cAMP^34. ABCA1 was induced in BHK cells by 16-24 hr incubation with 10 nM mifepristone^31. Inducers were included in the media during subsequent assays. ABCA1 expression was confirmed by western blot using the AC10 antibody (Santa Cruz Biotech).
Cholesterol efflux assay: On day 1, cells were plated on 24-well plates at a density of 20,000 to 400,000 cells per well. On day 2, the cells were labeled with […] [^3H]cholesterol in DMEM containing 1% FBS. On day 3, the cells when indicated were treated with or without ABCA1 inducers in serum-free DMEM. On day 4 (or day 3 for HEK293 cells and ABCA1 stably transfected cells) the cells were washed and chased for 4-6 hr in serum-free DMEM in the presence or absence of 5 μg/ml apoA1. The radioactivity in the chase media was determined after brief centrifugation to pellet any residual debris. Radioactivity in the cells was determined by extraction in hexane:isopropanol (3:2) with the solvent evaporated in a scintillation vial prior to counting. The percent cholesterol efflux was calculated as 100×(medium dpm)/(medium dpm+cell dpm).
Tmem55b knockdown: The siRNA to mouse Tmem55b (Origene, #SR408149) and scrambled control were transfected in RAW264.7 cells using siTran 1.0 (Origene). The cellular protein extracts were prepared using NP-40 lysis buffer containing protease inhibitors. The knockdown efficacy was determined by western blot using anti Tmem55b antibody (Santa Cruz).

apoA1 = apoA1 (Homo sapiens, UniProt P02647); test: Fluorescence anisotropy, apoA1 binding to bodipy-labeled PIP2; conditions: summary statement in the detailed description; read-out: dissociation constant of apoA1 binding to PIP2
immobilized apoA1 = biological target: T1, immobilized apoA1 (Homo sapiens, UniProt P02647); test: Surface plasmon resonance, lipid binding to immobilized apoA1; conditions: biotinylated apoA1 on sensor chip; PC at 1 μM
T1 construct: ApoA1 was purified form human plasma^29, and dialyzed against PBS; from tissue; host or cells: human plasma
Procedure: (§2) Surface Plasmon resonance: Binding kinetic of PIP2 with different apolipoproteins was analyzed using a Biacore3000 instrument. Either biotinylated apoA1 or biotinylated PIP2 was immobilized on a streptavidin (SA) sensor chip (GE Healthcare). The immobilized apoA1 or PIP2 was stable over the course of the experiment and baseline drift was <10 response units (RU)/h after the washing with Hepes buffered saline (FIBS) buffer. Different concentrations of apoA1 or PIP2 were injected using the KINJECT procedure at flow-rate of 10 μl/min and dissociation was monitored by injecting FIBS buffer. The injections were performed in triplicate for each ligand concentration. For comparing binding kinetics of PIP2 with apoA1, apoA2 and apoE, these proteins were immobilized by covalent coupling on a CMS sensor chip (GE Healthcare) using EDC-NHS reagents. PIP2 was injected as described above. Corrected response data were fitted with BIAevaluation software version 4.01, and Kd values were calculated.

apoA2 = biological target: T2, apoA2 (Homo sapiens, UniProt P02652); test: Surface plasmon resonance, PIP2 binding to immobilized apoA2
T2 construct: purchased Origene TP721104
Procedure: as §2

apoE = biological target: T3, apoE (Homo sapiens, UniProt P02649); test: Surface plasmon resonance, PIP2 binding to immobilized apoE
T3 construct: purchased Origene TP723016
Procedure: as §2

[2] = system: ABCA1 expressing RAW264.7 cells; test: ApoA1 cell binding by flow cytometry, RAW264.7 cells; assay type: cell-based, mouse; conditions: ABCA1-induced RAW264.7, apoA1 pre-incubated with PIP2 (5:1 mole ratio)
Procedure: as §1
Cell surface PS, PIP2, and apoA1 binding assays via flow cytometry: Cell surface PS levels were determined by flow cytometry after cell scraping in PBS, re-suspension in Annexin V binding buffer, and incubation with AnnexinV-Cy5 (Biovision) at room temperature for 5 minutes in the dark. Cell surface PIP2 levels were determined by flow cytometry by incubation with Alexa647 or FITC labeled anti-PIP2 antibody (Echelon) in phenol red-free, serum-free, DMEM at room temperature for 30 min. Human apoA1 was labeled with Alexa647 (Molecular Probes) on free amines using a 6:1 mole ratio of dye:apoA1. Alexa647-apoA1 binding was determined by flow cytometry after incubation with cells for 45 minutes at room temperature. […] Data was analyzed by Flowjo software and the median relative fluorescent intensities were compared.

T1 sequence (P02647 25-267 limits assumed): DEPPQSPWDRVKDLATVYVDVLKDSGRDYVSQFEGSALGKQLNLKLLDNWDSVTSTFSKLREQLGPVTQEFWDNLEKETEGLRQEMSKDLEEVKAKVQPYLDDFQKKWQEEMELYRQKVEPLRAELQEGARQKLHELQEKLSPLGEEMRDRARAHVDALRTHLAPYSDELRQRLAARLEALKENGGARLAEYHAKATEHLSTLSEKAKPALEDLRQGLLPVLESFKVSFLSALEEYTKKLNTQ
T2 sequence (P02652 19-100): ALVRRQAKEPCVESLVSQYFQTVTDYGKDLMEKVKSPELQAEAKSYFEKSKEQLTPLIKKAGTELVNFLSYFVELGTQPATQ
Chain of apoA1 (P02647 25-267 limits assumed): as the sequence (P02647 25-267 limits assumed) above
T3 sequence (P02649 19-317): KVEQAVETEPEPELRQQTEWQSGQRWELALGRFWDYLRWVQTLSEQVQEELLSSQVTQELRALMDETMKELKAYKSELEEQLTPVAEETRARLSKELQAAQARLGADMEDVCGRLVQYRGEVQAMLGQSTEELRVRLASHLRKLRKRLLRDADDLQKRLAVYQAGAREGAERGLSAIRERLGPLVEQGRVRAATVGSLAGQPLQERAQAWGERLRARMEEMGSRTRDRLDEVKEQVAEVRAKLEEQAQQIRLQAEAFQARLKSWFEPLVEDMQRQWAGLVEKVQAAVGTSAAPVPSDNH

## CC(=O)Nc1nc(C)c(-c2ccc(Cl)c(S(=O)(=O)NCCO)c2)s1 [PIK-93]
[1]
  ABCA1-dependent cholesterol efflux to apoA1: decreased

## CCCCC/C=C\C/C=C\C/C=C\C/C=C\CCCC(=O)O[C@H](COC(=O)CCCCCCCCCCCCCCCCC)COP(=O)(O)O[C@@H]1[C@H](O)[C@H](O)[C@@H](OP(=O)(O)O)[C@H](OP(=O)(O)O)[C@H]1O [PIP2, phosphatidylinositol (4,5) bis-phosphate]
apoA1
  pKd: ~7.00
Immobilized apoA1
  binding to immobilized apoA1 (SPR): direct binding
apoA2
  direct binding to apoA2 (SPR): direct binding
apoE
  direct binding to apoE (SPR): direct binding
[1]; ABCA1-induced RAW264.7, apoA1 5 μg/ml pre-incubated with PIP2 (PIP2:apoA1 5:1 mole ratio)
  cholesterol efflux to apoA1: decreased
[2]
  apoA1 binding: decreased

## CC(C)(C)C(=O)Nc1ccc2c(c1)C(=O)C(=O)c1ccccc1-2 [SF1670]
[1]
  ABCA1-dependent cholesterol efflux to apoA1: decreased

## phosphatidylcholine [PC]
Immobilized apoA1
  binding to immobilized apoA1 (SPR): no binding
